The text below walks through data of article PMC11434354, “Metabolic and Pharmacokinetic Profiling Studies of N, N-Dimethylaniline-Heliamine in Rats by UHPLC-Q-Orbitrap MS/MS” (Molecules, 2024).

A short description of the data set: Metabolite identification of DH in rat plasma, urine, feces and rat liver microsomes by UHPLC-Q-Orbitrap MS/MS. Type of data set: in vivo. Also on record: key: F*: feces; U*: urine; P*: plasma; LM*: Liver microsome. Particulars: rat plasma. Here is the method:
For the analysis of DH metabolites, the same UHPLC-MS/MS system was used for the plasma analysis, and the ACQUIT UHPLC BEH C18 column was also utilized. Mobile phase A consisted of 0.1% formic acid in water (v/v), while mobile phase B comprised acetonitrile. The flow rate was maintained at 0.2 mL/min, with a 10 µL injection volume. The column temperature was kept constant at 35 °C, and the RS autosampler temperature was maintained at 10 °C. The gradient elution was as follows: 0–3 min(5%B), 3–11 min (7%B), 11–18 min (7%B), and 18–45 min (30%B). A full MS/dd MS^2 mode in positive heated electrospray ionization (HESI) with 140,000 (for MS) and 17,500 (for MS/MS) resolutions was used for the Q–Exactive Plus Orbitrap MS. The compounds identified in full MS/dd MS^2 mode will be scanned using PRM scanning. The following MS parameters were employed: AGC target, 1 × 10^6; Maximum IT, 100 ms; Spray voltage, 3.2 kV; Capillary temp, 320 °C; S-lens RF level, 55; HCD Energy 20, 40, and 60.
Rat liver microsomes were used for in vitro experiments to study DH metabolism in rats more quickly and easily. After that, the cofactors of phases I and II were added to create the phase I and phase II metabolic systems. The composition of the reagent kit and the procedure can be found in our previous work.
For the plasma study, 100 µL of plasma was obtained from rats at 0.5, 1, 2, and 4 h after medicine administration. Then, 300 µL of acetonitrile was added to the above plasma, vortexed for 1 min, and centrifuged for 7 min. The supernatant was collected, and the remaining liquid was dried using nitrogen gas at 40 °C. The blow-dried samples were re-dissolved in 100 µL methanol, sonicated for 1 min, and centrifuged for 7 min.
Urine was collected during the period spanning from 0 to 48 h following administration, with each period’s combined urine comprising 10 mL and 30 mL of acetonitrile added thereto. After a 10 min interval of sonication, the urine samples were transferred into 1.5 mL centrifuge tubes, vortexed for 1 min, and then centrifuged at a speed of 14,000 rpm for 10 min. Successively, the supernatant was merged and subjected to drying by nitrogen gas at 40 °C. The blow-dried samples were re-dissolved in 100 µL of methanol, sonicated for 1 min, and centrifuged for 7 min.
For the fecal study, feces were collected within 0–48 h following administration, dried to powder at room temperature in a shaded area, and combined to yield 8 mL per period, to which 40 mL of acetonitrile was added. Following 30 min of sonication, the samples were transferred to 1.5 mL centrifuge tubes and centrifuged at 14,000 rpm for 10 min. The supernatant was collected and dried with nitrogen at 40 °C before analysis via UHPLC-MS/MS. Before analysis, the blow-dried samples were re-dissolved in 100 µL of methanol, sonicated for 1 min, and centrifuged for 7 min.
Compound Discovery 3.3 was used for data processing. The MS spectrometric features mainly include retention time, exact mass, peak intensity, and fragment ions. The data processing mainly included selecting spectra, aligning retention times, creating pattern traces, creating fish traces, generating expected compounds, finding expected compounds, grouping expected compounds, fish scoring, and marking background compounds. The mass tolerance is less than 5 ppm.
As for `CN(C)c1ccc(C2NCCc3cc(O)c(O)cc32)cc1` (stereo not shown) [M2–A], the “Rat and LM* (matrices in which DH or the metabolite was detected)” value is given as “U*, LM*”. The same measure for `COc1cc2c(cc1OC)C(c1ccc(N)cc1)NCC2` (stereo not shown) [M2–B]: “P*, U*, LM*”; for `CNc1ccc(C2NCCc3cc(OC)c(OC)cc32)cc1` (stereo not shown) [M4–C]: “P*, U*, LM*”; for `CN(C)c1ccc(-c2nccc3cc(O)c(O)cc23)cc1` [M6–A]: “F*”.
